row,Structure (SMILES),logP
1,CO[C@@H]1O[C@@H]2O[C@@]3(C)CC[C@H]4[C@H](C)CC[C@@H]([C@H]1C)[C@@]24OO3 (relative stereo),2.86
2,CCCOC1OC2OC3(C)CCC4C(C)CCC(C1C)C24OO3 (centres undefined),3.65
3,CCO[C@H]1O[C@@H]2O[C@@]3(C)CC[C@H]4[C@H](C)CC[C@@H]([C@H]1C)[C@@]24OO3,3.29
4,CCCC(=O)OC1OC2OC3(C)CCC4C(C)CCC(C1C)C24OO3 (centres undefined),2.99
5,CCCOC(=O)OC1OC2OC3(C)CCC4C(C)CCC(C1C)C24OO3 (centres undefined),3.11
6,CC(C)CCOC1OC2OC3(C)CCC4C(C)CCC(C1C)C24OO3 (centres undefined),4.07
7,CCC(=O)OC1OC2OC3(C)CCC4C(C)CCC(C1C)C24OO3 (centres undefined),2.33
8,CC1CCC2C(C)C(OC(=O)C=Cc3ccccc3)OC3OC4(C)CCC1C32OO4 (centres undefined),3.83
9,CC1CCC2C(C)C(OC(=O)Oc3ccccc3)OC3OC4(C)CCC1C32OO4 (centres undefined),3.38
10,CCOC(=O)OC1OC2OC3(C)CCC4C(C)CCC(C1C)C24OO3 (centres undefined),2.37
11,CC(=O)OC1OC2OC3(C)CCC4C(C)CCC(C1C)C24OO3 (centres undefined),2.08
12,CC(C)OC1OC2OC3(C)CCC4C(C)CCC(C1C)C24OO3 (centres undefined),3.49
13,COCCOCCOC1OC2OC3(C)CCC4C(C)CCC(C1C)C24OO3 (centres undefined),3.51
14,CC1CCC2C(C)C(OCc3ccccc3)OC3OC4(C)CCC1C32OO4 (centres undefined),4.2

# From the SangsterLogP compilation
